Measured values: patent publication US6172064A, “Formamides as therapeutic agents” (Glaxo Wellcome Inc., priority 1999, dated 2001)
Where two headings read alike, the source gives them in different places.

Tests used:
[1] = biological target: T1, TNFα converting enzyme (membrane preparation from MonoMac 6 cells) (Homo sapiens, UniProt P78536); assay: TNFα Converting Enzyme Inhibition; type: biochemical
T1 construct: Membrane preparation from MonoMac 6 cells; endogenous in cells; host or cells: MonoMac 6 cells (membrane preparation, subfractionated extract)
T1 sequence (P78536 215-824): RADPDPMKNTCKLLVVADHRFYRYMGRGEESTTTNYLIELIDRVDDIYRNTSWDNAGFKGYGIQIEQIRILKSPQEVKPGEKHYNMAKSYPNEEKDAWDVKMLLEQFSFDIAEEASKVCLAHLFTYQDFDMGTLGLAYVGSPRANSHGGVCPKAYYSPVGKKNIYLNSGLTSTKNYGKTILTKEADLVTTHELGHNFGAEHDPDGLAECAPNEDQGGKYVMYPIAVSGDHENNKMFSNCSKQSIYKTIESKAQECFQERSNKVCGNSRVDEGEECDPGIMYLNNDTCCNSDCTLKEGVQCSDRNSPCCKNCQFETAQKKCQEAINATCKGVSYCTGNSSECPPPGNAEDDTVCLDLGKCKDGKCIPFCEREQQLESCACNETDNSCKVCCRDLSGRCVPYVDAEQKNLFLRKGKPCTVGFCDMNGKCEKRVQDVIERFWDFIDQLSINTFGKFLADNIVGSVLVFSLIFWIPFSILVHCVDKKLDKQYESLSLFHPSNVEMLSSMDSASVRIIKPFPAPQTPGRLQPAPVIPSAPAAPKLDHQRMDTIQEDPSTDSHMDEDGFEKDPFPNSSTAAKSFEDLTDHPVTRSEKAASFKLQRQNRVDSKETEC
Description: The potency of compounds of the invention as inhibitors of cell-free tumor necrosis factor α converting enzyme is determined as follows: Membrane preparation from MonoMac 6 cells (subfractionated extract from equivalent of 6×10^6 cells per 60 μl assay) is incubated for 1 hr with 200 nM radiolabeled substrate (Biotin-SPLAQAVRSSSRT-(^3 H)P-S--NH2, 4.1 Ci/mmol, ref #0935 from Zeneca) in 10 mM hepes buffer, 250 mM sucrose, pH=7.5. The reaction is quenched by addition of streptavidin SPA beads (Amersham RPNQ0006), with excess binding capacity relative to substrate, suspended in 250 mM EDTA, pH=8.0. Binding is complete within 15 minutes and plates are counted in a Wallac 1450 Microbeta liquid scintillation counter. Percent inhibition is calculated at each inhibitor concentration and the data were plotted using standard curve fitting programs. Approximate IC50 values were determined from these curves. Assays were run at low substrate concentration ([S]<<Km) such that the calculated IC50 values are equivalent to Ki within experimental error.

[2] = tested on: A549 Human Lung; assay: Xenograft in vivo assay, A549; details: female NU/NU mice, p.o. once a day, 14 days, 30 mg/kg and 90 mg/kg
Description: (§1) Female NU/NU mice with a weight of 21±2 g are weighed and used. Control and test animals are injected subcutaneously in the axillary region with a suspension of 2×10^6 viable tumor cells in 200 uL in PBS±matrigel on day 0. Tumors are allowed to grow for 10 to 14 days prior to drug administration. Doses of test drug are given on a mg/kg basis according to the mean body weight for each cage. For each drug, two doses are used, 30 mg/kg and 90 mg/kg, and are administered by p.o. route once a day over a 14 day time span. Tumor weight is calculated from two perpendicular caliper measurements of the tumor using the formula, tumor weight=length×width2.div.2 in millimeters. For each animal, tumor weight is monitored over the course of the experiment, and expressed as the percent of the tumor's weight. For each group, the mean increase in tumor weight over the course of the experiment is calculated (tumor weightday […]-tumor weightday 14=≈tumor weight) and the results expressed as percent inhibition of tumor growth with respect to the control group [1-(≈tumor weight treated group/(≈tumor weight control group)]×100. Results are presented in Table 4. The criterion for antitumor activity is 25% inhibition of tumor growth after 2 weeks of dosing (day 14).

[3] = biological target: stromelysin-1 (MMP-3) (Homo sapiens, UniProt P08254); assay: Matrix Metalloprotease Inhibition, Stromelysin-1; type: biochemical; details: 5 nM enzyme, 10 μM fluorogenic substrate, pH=7.6; approximate IC50 equivalent to Ki ([S]<<Km)
Chain of stromelysin-1 (MMP-3) (P08254 100-477): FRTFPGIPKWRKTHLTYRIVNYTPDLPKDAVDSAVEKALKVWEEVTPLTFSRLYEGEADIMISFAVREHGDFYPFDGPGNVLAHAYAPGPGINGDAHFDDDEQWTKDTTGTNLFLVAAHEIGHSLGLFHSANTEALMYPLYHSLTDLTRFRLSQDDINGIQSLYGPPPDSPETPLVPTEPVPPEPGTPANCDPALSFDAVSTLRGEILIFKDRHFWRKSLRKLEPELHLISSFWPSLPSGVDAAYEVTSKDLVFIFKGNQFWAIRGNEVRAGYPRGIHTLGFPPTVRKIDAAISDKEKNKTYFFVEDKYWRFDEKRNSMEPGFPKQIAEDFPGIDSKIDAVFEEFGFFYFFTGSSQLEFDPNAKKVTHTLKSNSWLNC
Description: (§2) The potency of compounds of the invention as inhibitors of 19 kD truncated collagenase-1 (MMP-1), 20 kD truncated collagenase-3 (MMP-13), stromelysin-1 (MMP-3), and 50 kD truncated gelatinase B (MMP-9) is determined according to the general procedure of Bickett et. al. (Anal. Biochem. 1993, 212, 58-64) using the fluorogenic substrate, DNP-Pro-Cha-Gly-Cys(Me)-His-Ala-Lys(NMA)--NH2 (DNP=2,4-dinitrophenyl,NMA=N-methylanthranilic acid). Assays are conducted in a total volume of 0.180 mL assay buffer (200 mM NaCl, 50 mM Tris, 5 mM CaCl2, 10 μM ZnSO4, 0.005% Brij 35, pH=7.6) in each well of a black 96 well microtiter plate. 19 kD collagenase-1, 20 kD collagenase-3, stromelysin-1,and 50 kD gelatinase B concentrations are adjusted to 500 pM, 30 pM, 5 nM, and 100 pM, respectively. A dose response is generated using an eleven-point, 3-fold serial dilution with initial starting test compound concentrations of 100, 10, or 1 μM. Inhibitor and enzyme reactions are incubated for 30 minutes at ambient temperature and then initiated with 10 μM fluorogenic substrate (above). The product formation is measured at Excitation343 /Emission450 nm after 45-180 minutes using a Fluostar SLT fluorescence analyzer. Percent inhibition is calculated at each inhibitor concentration and the data were plotted using standard curve fitting programs. Approximate IC50 values were determined from these curves. Assays were run at low substrate concentration ([S]<<Km) such that the calculated IC50 values are equivalent to Ki within experimental error.

[4] = tested on: Mat Ly Lu Murine Prostate; assay: Xenograft in vivo assay, Mat Ly Lu; details: female NU/NU mice, p.o. once a day, 14 days, 30 mg/kg and 90 mg/kg
Description: as §1

[5] = tested on: Lewis Lung M27 Murine Lung; assay: Xenograft in vivo assay, Lewis Lung M27; details: female NU/NU mice, p.o. once a day, 14 days, 30 mg/kg and 90 mg/kg
Description: as §1

[6] = biological target: 50 kD truncated gelatinase B (MMP-9); assay: Matrix Metalloprotease Inhibition, Gelatinase B; type: biochemical; details: 100 pM enzyme, 10 μM fluorogenic substrate, pH=7.6; approximate IC50 equivalent to Ki ([S]<<Km)
Description: as §2

[7] = tested on: B16B6 Murine Melanoma; assay: Xenograft in vivo assay, B16B6; details: female NU/NU mice, p.o. once a day, 14 days, 30 mg/kg and 90 mg/kg
Description: as §1

[8] = biological target: 20 kD truncated collagenase-3 (MMP-13); assay: Matrix Metalloprotease Inhibition, Collagenase-3; type: biochemical; details: 30 pM enzyme, 10 μM fluorogenic substrate, pH=7.6; approximate IC50 equivalent to Ki ([S]<<Km)
Description: as §2

[9] = tested on: TNFα release from LPS/PMA-stimulated MonoMac 6 cells; assay: Cell-Based TNFα Release Inhibition; details: Homo sapiens, MONO-MAC-6, LPS/PMA stimulation, 2 hours, 37° C.
Description: The potency of compounds of the invention as inhibitors of release of soluble tumor necrosis factor α from stimulated monocytes in vitro is determined as follows: LPS/PMA solution for assay consisting of a) 4 μL of 5 mg/mL LPS stock and b) 6 μL of 10 mg/mL PMA stock are added to 500 μL of medium (RPMI 1640 (Gibco)+10% FBS+penicillin/streptomycin+1-glutamine). This solution is then diluted 1:1000 (40 ng/mL and 120 ng/mL) for use later in the assay. Compounds (10 mM) are serially diluted 1:3 in DMSO. Compound dilutions (20 μL) are added to a sterile round bottom 96 well plate (20 μL:200 μL total volume=1:10 for final concentrations of […] for test compounds). MonoMac 6 cell suspension (130 μL, 1.5×10^6 cells/mL) is then added to each well resulting in 2×10^5 cells/well. LPS/PMA (50 μL) solution is then added to each well to begin stimulation (final concentrations of […] and 30 ng/mL respectively). The plate is incubated at 37° C. for 2 hours then spun at 1,500 rpm for 3 minutes to pellet cells. The supernatant (120 μL/well) is removed to a new round bottom 96 well plate and diluted 1:10 in PBS. Then, 20 μL of the supernatant is transferred to a Cistron TNFα ELISA plate and processed according to the manufacturer's instructions to quantitate levels of TNFα. […]

[10] = biological target: T2, 19 kD truncated collagenase-1 (MMP-1) (Homo sapiens, UniProt P03956); assay: Matrix Metalloprotease Inhibition, Collagenase-1; type: biochemical; details: 500 pM enzyme, 10 μM fluorogenic substrate, pH=7.6; approximate IC50 equivalent to Ki ([S]<<Km)
T2 construct: 19 kD truncated collagenase-1 (MMP-1)
T2 sequence (P03956 101-269 limits assumed): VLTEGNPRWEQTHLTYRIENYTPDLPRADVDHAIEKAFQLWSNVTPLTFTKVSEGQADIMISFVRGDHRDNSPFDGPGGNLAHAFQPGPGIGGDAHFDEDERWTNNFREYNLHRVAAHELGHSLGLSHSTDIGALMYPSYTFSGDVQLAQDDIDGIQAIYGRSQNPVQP
Description: as §2

[11] = tested on: SW 620 Human Colon; assay: Xenograft in vivo assay, SW 620; details: female NU/NU mice, p.o. once a day, 14 days, 30 mg/kg and 90 mg/kg
Description: as §1

[12] = tested on: Colo 205 Human Colon; assay: Xenograft in vivo assay, Colo 205; details: female NU/NU mice, p.o. once a day, 14 days, 30 mg/kg and 90 mg/kg
Description: as §1

[13] = MonoMac 6 membrane preparation, 200 nM radiolabeled substrate, pH=7.5, 1 hr, approximate IC50 equivalent to Ki ([S]<<Km), read-out: TNFα Converting Enzyme Ki

Structure (SMILES)	Ki [1] [nM]	percent inhibition of tumor growth [2]	Ki [3] [nM]	percent inhibition of tumor growth [4]	percent inhibition of tumor growth [5]	Ki [6] [nM]	percent inhibition of tumor growth [7]	Ki [8] [nM]	IC50 [9] [nM]	Ki [10] [nM]	percent inhibition of tumor growth [11]	percent inhibition of tumor growth [12]	Ki [1, 13] [nM]
CNC(=O)[C@@H](NC(=O)[C@H](CCCc1ccccc1)[C@H](C)N(O)C=O)C(C)(C)C [Example 1]	50 to 500	++++ (>100% Inhibition (Tumor Regression))	50 to 500	++ (51-75% Inhibition)	+ (26-50% Inhibition)	0.5 to 5	+ (26-50% Inhibition)	0.5 to 5	> 500	50 to 500	++ (51-75% Inhibition)	++ (51-75% Inhibition)	
CNC(=O)[C@@H](NC(=O)[C@H](CCCc1ccc(Cl)cc1)[C@H](C)N(O)C=O)C(C)(C)C [Example 2]			5 to 50			0.001 to 0.5		0.001 to 0.5		5 to 50			> 500
CNC(=O)[C@@H](NC(=O)[C@H](CCCc1cccs1)[C@H](C)N(O)C=O)C(C)(C)C [Example 3]			50 to 500			0.5 to 5		0.001 to 0.5		5 to 50			50 to 500
CC(C)[C@@H]([C@@H](CCCc1ccc(Cl)cc1)C(=O)N[C@H](C(=O)NCc1cccnc1)C(C)(C)C)N(O)C=O [Example 9]			5 to 50			0.5 to 5		0.001 to 0.5		50 to 500			50 to 500
C[C@@H]([C@@H](CCCc1ccc(Cl)cc1)C(=O)N[C@H](C(=O)NCc1ccccn1)C(C)(C)C)N(O)C=O [Example 20, (2R,3S)-3-(Formylhydroxyamino)-2-(3-(4-chlorophenyl)-1-propyl)-butanoic Acid [(1S)-2,2-Dimethyl-(1-(2-pyridylmethyl)carbamoyl)-1-propyl]amide]			50 to 500			0.5 to 5		0.001 to 0.5		50 to 500			> 500
C[C@@H]([C@@H](CCCc1ccc(Cl)cc1)C(=O)N[C@H](C(=O)NCCCN1CCOCC1)C(C)(C)C)N(O)C=O [Example 24, (2R,3S)-3-(Formylhydroxyamino)-2-(3-(4-chlorophenyl)-1-propyl)-butanoic Acid[(1S)-2,2-Dimethyl-(1-(3-(4-morpholino)-1-propyl)carbamoyl)-1-propyl]amide]			5 to 50			0.5 to 5		0.001 to 0.5		50 to 500			50 to 500
CNC(=O)[C@@H](NC(=O)[C@H](CCCc1ccc(C)cc1)[C@H](C)N(O)C=O)C(C)(C)C [Example 52, (2R,3S)-3-(Formylhydroxyamino)-2-(3-(4-methylphenyl)-1-propyl)butanoic Acid [(1S)-2,2-Dimethyl-(1-methylcarbamoyl)-1-propyl]amide]			5 to 50			0.5 to 5		0.5 to 5		50 to 500			50 to 500
CNC(=O)[C@@H](NC(=O)[C@H](CCCCCc1ccccc1)[C@H](C)N(O)C=O)C(C)(C)C [Example 61, (2R,3S)-3-(Formylhydroxyamino)-2-(5-phenyl-1-pentyl)butanoic Acid [(1S)-2,2-Dimethyl-(1-methylcarbamoyl)-1-propyl]amide]			5 to 50			0.5 to 5		0.5 to 5		50 to 500			> 500
